Measured values published in publication PMC11992225, “Antibacterial compounds against non-growing and intracellular bacteria” (npj Antimicrobials and Resistance, 2025).
Converted amounts (≈) assume the structure as drawn. Where two headings read alike, the source gives them in different places.

Legend:
E. coli CFT073 (UPEC) = experiment: MIC, standard microdilution assay, growing UPEC; format: cell-based, Escherichia coli; conditions: Escherichia coli
Procedure, shortened: (§1)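 Medium: CA-MHB + 40 mM HEPES, pH 7.4 (UPEC, P. aeruginosa, S. aureus); LPM + 30 mM MES, pH 5.5 (UPEC, extra condition); TSB (S. flexneri). Microdilution format, n = 3.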

[1] = test system: non-growing P. aeruginosa DSM1117; experiment: Dilution-regrowth assay (OD600, start-growth-time) on stationary-phase P. aeruginosa; format: cell-based, Pseudomonas aeruginosa; conditions: P. aeruginosa; for EC50: Pseudomonas aeruginosa, DSM1117, regrowth delay of non-growing bacteria, 1:4 CA-MHB pH 7.4, 24 h treatment, OD600 8 h after dilution, read-out: EC50; for Regrowth, OD600 at 6h or 8h after dilution into drug-free medium: average
Procedure: To determine the spectrum of activity of the compounds that were effective against non-growing UPEC, we further assessed their efficacy against the well-characterized Gram-negative and Gram-positive reference strains P. aeruginosa DSM1117 and S. aureus DSM2569, respectively. The cultures were grown and treated for 24 h in 1:4 CA-MHB (pH 7.4). […].
For better characterization of the compounds causing the strongest regrowth delay, we performed the regrowth step of the dilution-regrowth experiments on a plate reader, measuring the OD600 at 20-min intervals for over 20 h instead of using an endpoint measurement. This approach allowed us to capture the time when cultures reached a threshold optical density (start-growth-time, SGT[15]).
Overnight cultures of UPEC, P. aeruginosa and S. aureus were grown in test tubes containing 3 ml of LB broth (~16 h), then diluted 1:100 into either 1:4 diluted CA-MHB medium buffered with 40 mM HEPES (pH 7.4) or, in case of UPEC, into LPM medium[25] supplemented with 49 µM MgCl2 and buffered with 30 mM MES (pH 5.5). The cultures were incubated for 24 h in non-baffled Erlenmeyer flasks at 37 °C with shaking at 200 rpm.
For P. aeruginosa and S. aureus, dose–response analysis was conducted in 96-well plates with a 200 μl assay volume, following the procedure used for screening assay validation experiments. Aliquots of the 39 compounds active against non-growing UPEC were obtained from SelleckChem and MedChem Express. Stock solutions were prepared and stored according to the manufacturers’ instructions, then diluted in 10% DMSO before use. Cultures were incubated for 24 h in 1:4 diluted CA-MHB medium under the same conditions used for UPEC cultivation. In preliminary experiments, each compound was tested at a concentration of 20 μM in the dilution-regrowth assay with 4 technical replicates. Regrowth was monitored using a microplate reader at 37 °C with continuous shaking, and OD600 was recorded every 20 min. The time at which OD600 exceeded the threshold of 0.12 was recorded as the Start_Growth-Time.
The statistical analysis of all data, as well as EC50 and IC50 determination, was conducted using GraphPad Prism 10.2.3. Statistical significance of the drug effects was assessed using a one-way ANOVA followed by Dunnett’s test, comparing each treatment to the drug-free control. Statistical significance of the differences in chemical characteristics between the hit compounds and the Prestwick library was assessed using a Mann–Whitney test. Statistical significance was set at P ≤ 0.05. A five-parameter logistic equation was used for asymmetric sigmoidal curve fitting and for EC50 and IC50 determination. The Venn diagram in Fig. 1F was prepared using BioVenn web application. Characteristics of the chemical and physical properties of Prestwick library compounds were obtained from Supplementary Table S1 from reference. Characteristics of the hit compounds not included in the Prestwick library were retrieved from the PubChem database.

P. aeruginosa DSM1117 = experiment: MIC, standard microdilution assay, growing P. aeruginosa; format: cell-based, Pseudomonas aeruginosa; conditions: P. aeruginosa; for MIC: Pseudomonas aeruginosa, DSM1117
Procedure, shortened: as §1

[2] = test system: intracellular S. flexneri 5a M90T in TC7 cells; experiment: microbe, parasite or virus in culture; format: cell-based, Shigella flexneri; conditions: for IC50: Shigella flexneri, TC7, 14 h
S. flexneri 5a M90T = experiment: MIC in tryptic soy broth, S. flexneri; format: cell-based, Shigella flexneri; conditions: Shigella flexneri, 5AM90T, read-out: MIC (μM) TSB
Procedure, shortened: as §1

[3] = E. coli, pH 7.4, CA-MHB, read-out: MIC (μM) CA-MHB
[4] = 1:4 diluted CA-MHB pH 7.4, read-out: MIC (μM) 1:4 CA-MHB
[5] = CA-MHB pH 7.4, read-out: MIC (μM) CA-MHB
[6] = TC7 cells infected with GFP-expressing S. flexneri, 14 h treatment

Compound | MIC (E. coli CFT073 (UPEC); [3]) [µM] | EC50 [1] [nM] | MIC (P. aeruginosa DSM1117; [4]) [µM] | MIC (P. aeruginosa DSM1117; [5]) [µM] | IC50 [2] [nM] | Fluorescence intensity (RFU), Mean, 0.5 x MIC [2, 6] [RFU] | Fluorescence intensity (RFU), Mean, 2 x MIC [2, 6] [RFU] | Fluorescence intensity (RFU), Mean, 4 x MIC [2, 6] [RFU] | Fluorescence intensity (RFU), Mean, 8 x MIC [2, 6] [RFU] | Fluorescence intensity (RFU), Mean, 16 x MIC [2, 6] [RFU] | Fluorescence intensity (RFU), Mean, 32 x MIC [2, 6] [RFU] | Fluorescence intensity (RFU), Mean, MIC [2, 6] [RFU] | MIC (S. flexneri 5a M90T) [µM] | Fluorescence intensity (RFU), Mean, 0.25 x MIC [2, 6] [RFU] | increase of MIC in diluted CA-MHB versus CA-MHB (P. aeruginosa DSM1117) | other results
O=C(O)c1cn(C2CC2)c2cc(N3CCNCC3)c(F)cc2c1=O [Ciprofloxacin] | 0.125 (≈ 0.0414 µg/mL) | 125 | 2 (≈ 0.663 µg/mL) | 2 (≈ 0.663 µg/mL) | 54 | 6160.67 | 3512.33 | 3078.86 | 2399.75 | 1781.06 | 1734.42 | 4637.36 | 0.0625 (≈ 0.0207 µg/mL) |  |  | MIC (E. coli CFT073 (UPEC); E. coli, LPM pH 5.5, read-out: MIC): 0.25 µM (≈ 0.0828 µg/mL)
C[C@@H]1CN(c2c(F)c(N)c3c(=O)c(C(=O)O)cn(C4CC4)c3c2F)C[C@H](C)N1 [Sparfloxacin] | 0.025 (≈ 0.00981 µg/mL) | 381 | 2 (≈ 0.785 µg/mL) | 2 (≈ 0.785 µg/mL) | 12 | 4270.29 | 2726.47 | 2375.69 | 1916.33 | 1615.39 | 1554.53 | 2934.67 | 0.0312 (≈ 0.0123 µg/mL) | 5576.79 |  | MIC:IC50 ratio ([2]; S. flexneri MIC in TSB versus intracellular IC50): > 2
N[C@@H]1CCCCN(c2c(F)cc3c(=O)c(C(=O)O)cn(C4CC4)c3c2Cl)C1 [Besifloxacin] | 0.25 (≈ 0.0985 µg/mL) | 266 | 8 (≈ 3.15 µg/mL) | 4 (≈ 1.58 µg/mL) | 331 | 8982.33 | 4305.25 | 3977.14 | 2983.69 | 2325.53 | 1789.06 | 5856.42 | 0.25 (≈ 0.0985 µg/mL) |  | twofold | Regrowth, OD600 at 6h or 8h after dilution into drug-free medium ([1]; concentration 0.1): 0.563; Regrowth, OD600 at 6h or 8h after dilution into drug-free medium ([1]; concentration 0.5): 0.201; Regrowth, OD600 at 6h or 8h after dilution into drug-free medium ([1]; concentration 2.5): 0.091; Regrowth, OD600 at 6h or 8h after dilution into drug-free medium ([1]; concentration 10): 0.090
N[C@@H]1[C@H]2CN(c3nc4c(cc3F)c(=O)c(C(=O)O)cn4-c3ccc(F)cc3F)C[C@@H]12 [Trovafloxacin] | 0.4 (≈ 0.167 µg/mL) | 1020 | 8 (≈ 3.33 µg/mL) | 2 (≈ 0.833 µg/mL) | 37 | 6129.12 | 2933.5 | 2559.17 | 2016.56 | 1696.44 | 1579.94 | 3277.92 | 0.0625 (≈ 0.026 µg/mL) | 8024.79 | four | MIC (E. coli CFT073 (UPEC); pH 5.5): 0.0625 µM (≈ 0.026 µg/mL); Fluorescence intensity (RFU), Mean, 0.125 x MIC ([2]; TC7 cells infected with GFP-expressing S. flexneri, 14 h treatment, 0.125 x MIC): 8837.54 RFU
COc1c(N2CCNC(C)C2)c(F)cc2c(=O)c(C(=O)O)cn(C3CC3)c12 (centres unmarked) [Gatifloxacin] | 0.125 (≈ 0.0469 µg/mL) | 182 | 4 (≈ 1.5 µg/mL) | 4 (≈ 1.5 µg/mL) | 34 | 7621.42 | 3709.33 | 3006.58 | 2924.83 | 2191.44 | 1768.58 | 5214.92 | 0.0312 (≈ 0.0117 µg/mL) |  |  | 
